Data as given in patent US7026281B1, “Antagonistic analogs of GH-RH inhibiting IGF-I and -II” (The Administrators of the Tulane Educational Fund, priority 1998, dated 2006).
pKi: −log10 of the molar value. Square brackets hold non-standard residues; d marks the D form. Peptide text beside a SMILES is read from it. * marks the point of attachment. Phe(4-Cl) = N[C@@H](Cc1ccc(Cl)cc1)C(=O)O; hArg = N=C(N)NCCCC[C@H](N)C(=O)O; Nle = CCCC[C@H](N)C(=O)O; Abu = CC[C@H](N)C(=O)O; PhAc = O=C(Cc1ccccc1)*

How the values were obtained:
[1] = test system: hGH-RH(1–29)NH2 induced GH release; experiment: Inhibition of GH release in superfused rat pituitary system; assay type: cell-based; settings: antagonist 30 nM; for Inhibition of GH release (%) 30 min: 1 nM hGH-RH(1–29)NH2 30 min later; for Inhibition of GH release (%) 60 min: 1 nM hGH-RH(1–29)NH2 60 min later; for Inhibition of GH release (%) 90 min: 1 nM hGH-RH(1–29)NH2 90 min later; for Inhibition of GH release (%) 120 min: 1 nM hGH-RH(1–29)NH2 120 min later; for Inhibition of GH release (%) 0 min: 1 nM hGH-RH(1–29)NH2 at 0 min
Experimental: Superfused Rat Pituitary System.
The analogs were tested in vitro in a test described earlier (S. Vigh and A. V. Schally, Peptides 5:241–347, 1984) with modification (Z. Rekasi and A. V. Schally, P.N.A.S. 90:2146–2149, 1993).
Briefly, the cells are preincubated with peptides for 9 minutes (3 mL) at various concentrations. Immediately after the incubation, 1 nM hGH-RH(1–29)NH2 is administered for 3 minutes (1 mL) [0 minute response]. To check the duration of the antagonistic effect of the analogue, 1 nM hGH-RH(1–29)NH2 is applied 30, 60, 90, and 120 minutes later for 3 minutes [30, 60, 90, 120 min responses]. Net integral values of the GH responses are evaluated. GH responses are compared to and expressed as percent of the original GH response induced by 1 nM GH-RH(1–29)NH2. The effect of the new antagonists are compared to that of [Ac-Tyr^1,D-Arg^2]hGH-RH(1–29)NH2, the “Standard antagonist”.
Growth Hormone Radio-immunoassay.
Rat GH levels in aliquots of undiluted and diluted superfusion samples were measured by double-antibody radioimmunoassay using materials supplied by the National Hormone and Pituitary Program, Baltimore, Md. The results of RIA were analyzed with a computer program developed in our institute (V. Csernus and A. V. Schally, in Neuroendocrine Research Methods, Harwood Academic (Greenstein, B. D. ed., London, pp. 71–109, 1991), hereby incorporated by reference. Inter-assay variation was less than 15% and intra-assay variation was less than 10%.

[2] = target: T1, rat pituitary GH-RH receptors (Rattus norvegicus, UniProt Q02644); experiment: GH-RH radioreceptor binding assay, rat anterior pituitary membrane homogenates; settings: for pKi: competition with [His1,125I-Tyr10,Nle27]hGH-RH(1–32)NH2; for R.A. (relative affinity compared to Standard antagonist): ratio of Ki values
T1 construct: from tissue; host or cells: anterior pituitary of male Sprague-Dawley rats, crude membrane homogenates
T1 sequence (Q02644 23-464): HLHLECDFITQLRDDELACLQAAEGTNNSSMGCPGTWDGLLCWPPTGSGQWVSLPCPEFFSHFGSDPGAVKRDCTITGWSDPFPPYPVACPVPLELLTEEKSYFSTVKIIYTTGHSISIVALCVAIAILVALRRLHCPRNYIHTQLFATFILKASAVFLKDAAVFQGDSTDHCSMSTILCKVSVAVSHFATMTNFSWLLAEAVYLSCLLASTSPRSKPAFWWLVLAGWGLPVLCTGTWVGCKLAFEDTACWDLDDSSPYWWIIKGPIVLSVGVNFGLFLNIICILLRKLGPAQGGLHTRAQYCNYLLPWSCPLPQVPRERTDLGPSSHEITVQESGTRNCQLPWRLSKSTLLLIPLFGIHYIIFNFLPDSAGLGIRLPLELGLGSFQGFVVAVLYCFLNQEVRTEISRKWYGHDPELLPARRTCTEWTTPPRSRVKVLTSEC
Experimental: GH-RH Binding Assay. A sensitive radioreceptor binding assay was developed to determine the binding characteristics of the antagonists of GH-RH (G. Halmos, A. V. Schally et al., Receptor 3, 87–97, 1993), hereby incorporated by reference. The assay is based on binding of labelled [His^1,Nle^27]hGH-RH(1–32)NH2 to rat anterior pituitary membrane homogenates. Iodinated derivatives of [His^1,Nle^27]hGH-RH(1–32)NH2 are prepared by the chloramine-T method (F. C. Greenwood et al., Biochemistry 89:114–123, 1963), hereby incorporated by reference. Pituitaries from male Sprague-Dawley rats (250–300 g) are used to prepare crude membranes. For saturation binding analyses, membrane homogenates are incubated with at least 6 concentrations of [His^1,^125I-Tyr^10,Nle^27]hGH-RH(1–32) NH2, ranging from 0.005 to 0.35 nM in the presence or absence of excess unlabelled peptide (1 μM).
The pellet is counted for radioactivity in a γ-counter. The affinities of the antagonist peptides tested to rat pituitary GH-RH receptors are determined in competitive binding experiments. The final binding affinities are estimated by Ki (dissociation constant of the inhibitor-receptor complex) and are determined by the Ligand PC and McPherson computer programs of Munson and Rodbard (P. J. Munson and D. Rodbard, Anal. Biochem. 107. 220–239, 1980). Relative affinities compared to [Ac-Tyr^1,D-Arg^2]hGH-RH(1–29)NH2, the Standard antagonist, are calculated as the […].

[3] = test system: GH release stimulated by hGH-RH(1–29)NH2; experiment: In vivo inhibition of serum GH response in rats; set-up: species or system rat; settings: for Inhibition of the GH release stimulated by hGH-RH(1–29)NH2 (in words): 80 μg/kg i.v., rats
Experimental: GH-RH antagonistic effect of the analogs was tested on young male Sprague-Dawley rats (200–250 g). In each experiment, 5 groups of 7 animals each were used. The compounds (80 μg/kg) and GH-RH(1–29)NH2 (3 μg/kg) were dissolved in 5.5% mannitol and given intravenously to the jugular vein of the rats under Nembutal anesthesia. The time elapsed between the administrations of the antagonist and GH-RH varied between groups, according to the following schedule. The first group of animals received GH-RH injection 5 min after the administration of the antagonist; for the second, third and fourth group of animals, the time interval elapsed between the injection of the antagonist and that of GH-RH was 15, 30, and 60 min, respectively. The control group was first injected with the solvent alone instead of the antagonist, followed by a GH-RH injection 5 min later.
0.4 mL blood samples were taken for GH RIA before the administration of the antagonist (“blood0”), and 5 min after the injection of GH-RH (“blood1”). The GH response in each group was calculated as rGH=(GHblood1/GHblood0), mean±S.E.M. of the individual differences. Relative inhibition of GH response (%) in each group treated was calculated as […].

[4] = antagonist 80 μg/kg i.v. 5 min before GH-RH
[5] = antagonist 80 μg/kg i.v. 15 min before GH-RH
[6] = antagonist 80 μg/kg i.v. 15 min before GH-RH 3 μg/kg
[7] = antagonist 80 μg/kg i.v. 30 min before GH-RH
[8] = antagonist 80 μg/kg i.v. 30 min before GH-RH 3 μg/kg
[9] = antagonist 80 μg/kg i.v. 60 min before GH-RH
[10] = antagonist 80 μg/kg i.v. 60 min before GH-RH 3 μg/kg
[11] = rGH=GHblood1/GHblood0, antagonist 80 μg/kg i.v. 5 min before GH-RH 3 μg/kg

Structure (SMILES)	Inhibition of GH release (%) 30 min [1] [%]	Inhibition of GH release (%) 60 min [1] [%]	Inhibition of GH release (%) 90 min [1] [%]	Inhibition of GH release (%) 120 min [1] [%]	Inhibition of GH release (%) 0 min [1] [%]	pKi [2]	R.A. (relative affinity compared to Standard antagonist) [2]	Inhibition of the GH release stimulated by hGH-RH(1–29)NH2 (in words) [3]	Relative inhibition % of GH response [3, 4] [%]	Relative inhibition % of GH response [3, 5] [%]	GH response mean ± S.E.M. [3, 6]	Relative inhibition % of GH response [3, 7] [%]	GH response mean ± S.E.M. [3, 8]	Relative inhibition % of GH response [3, 9] [%]	GH response mean ± S.E.M. [3, 10]	GH response mean ± S.E.M. [3, 11]
CCCC[C@H](NC(=O)[C@@H](NC(=O)[C@H](CC(=O)O)NC(=O)[C@H](CCC(N)=O)NC(=O)[C@H](CC(C)C)NC(=O)[C@H](CC(C)C)NC(=O)[C@H](CCCCN)NC(=O)[C@H](CCCNC(=N)N)NC(=O)[C@H](C)NC(=O)[C@H](CO)NC(=O)[C@H](CC(C)C)NC(=O)[C@H](CCC(N)=O)NC(=O)[C@H](CC)NC(=O)[C@H](CC(C)C)NC(=O)[C@@H](NC(=O)[C@H](CCCCN)NC(=O)[C@H](CCCNC(=N)N)NC(=O)[C@H](Cc1ccc(O)cc1)NC(=O)[C@H](CCCCNC(=N)N)NC(=O)[C@H](CC(N)=O)NC(=O)[C@@H](NC(=O)[C@H](Cc1ccc(Cl)cc1)NC(=O)[C@@H](NC(=O)[C@H](C)NC(=O)[C@H](CC(=O)O)NC(=O)[C@@H](CCCNC(=N)N)NC(=O)[C@H](Cc1ccc(O)cc1)NC(=O)Cc1ccccc1)[C@@H](C)CC)[C@@H](C)O)C(C)C)[C@@H](C)CC)C(=O)N[C@H](CCCNC(=N)N)C(=O)N[C@@H](CCCCNC(=N)N)C(N)=O [Peptide 4, [PhAc^0, D-Arg^2, Phe(pCl)^6, Har^9, Abu^15, Nle^27, D-Arg^28, Har^29]hGH-RH(1–29)NH2] (PhAc-Y[dR]DAI[Phe(4-Cl)]TN[hArg]YRKVL[Abu]QLSARKLLQDI[Nle][dR][hArg]-NH2)	86	80	79	68	83	10.06	34	strong and long-lasting inhibition	82	43	7.73 ± 1.12	7	12.00 ± 2.54	8	11.88 ± 0.90	3.08 ± 0.58
CCCC[C@H](NC(=O)[C@@H](NC(=O)[C@H](CC(=O)O)NC(=O)[C@H](CCC(N)=O)NC(=O)[C@H](CC(C)C)NC(=O)[C@H](CC(C)C)NC(=O)[C@H](CCCCN)NC(=O)[C@H](CCCNC(=N)N)NC(=O)[C@H](C)NC(=O)[C@H](CO)NC(=O)[C@H](CC(C)C)NC(=O)[C@H](CCC(N)=O)NC(=O)[C@H](CC)NC(=O)[C@H](CC(C)C)NC(=O)[C@@H](NC(=O)[C@H](CCCCN)NC(=O)[C@H](CCCNC(=N)N)NC(=O)[C@H](Cc1ccc(OC)cc1)NC(=O)[C@H](CO)NC(=O)[C@H](CC(N)=O)NC(=O)[C@@H](NC(=O)[C@H](Cc1ccc(Cl)cc1)NC(=O)[C@@H](NC(=O)[C@H](C)NC(=O)[C@H](CC(=O)O)NC(=O)[C@@H](CCCNC(=N)N)NC(=O)[C@H](Cc1ccc(O)cc1)NC(=O)Cc1ccccc1)[C@@H](C)CC)[C@@H](C)O)C(C)C)[C@@H](C)CC)C(=O)N[C@@H](CO)C(=O)N[C@H](CCCNC(=N)N)C(N)=O [Peptide 16, [PhAc^0, D-Arg^2, Phe(pCl)^6, Tyr(Me)^10, Abu^15, Nle^27, D-Arg^29]hGH-RH(1–29)NH2] (PhAc-Y[dR]DAI[Phe(4-Cl)]TNSY(Me)RKVL[Abu]QLSARKLLQDI[Nle]S[dR]-NH2)	87	83	56	65	65	10.15	42	strong and long-lasting inhibition	77	70	3.44 ± 0.62	48	5.24 ± 1.36	0	9.19 ± 1.89	2.89 ± 0.65
